According to patent US20260234165A1, “MACROCYCLIC COMPOUNDS, PREPARATION METHOD THEREFOR, AND USE THEREOF” (GENFLEET THERAPEUTICS (SHANGHAI) INC., priority 2004, published 2026):
Where two headings read alike, the source gives them in different places.

Legend:
[1] = test system: NCI-H441 cells; test: 3D cell proliferation assay (CellTiter Glo-3D), NCI-H441; type: cell-based, human; conditions: medium with 2% FBS, read-out: H441 AP IC50
From the text: MIA PaCa-2 cells were purchased from ATCC, Cat. No. CRL-1420; AsPC-1 cells were purchased from ATCC, Cat. No. CRL-1682; NCI-H441 cells were purchased from ATCC, Cat. No. HTB-174: NCI-H1975 cells were purchased from ATCC. Cat. No. CRL-5908; DMEM medium was purchased from Gibco, Cat. No. 11995-065: RPMI-1040 medium was purchased from Gibco. Cat. No. H 18754093; FBS was purchased from Gibco, Cat. No. 10099-141C. penicillin, streptomycin double-antibiotic solution (PS) was purchased from Gibco, Cat. No. 15140-122; Horse serum was purchased from Gibco. Cat. No. 16050130: trypsin (containing EDTA) was purchased from Gibco, Cat. No. 25200-072; DMSO was purchased from VWRAMRESCO, Cat. No. 0231-500ML; 384-well cell culture plates were purchased from Corning, Cat. No. 3830; white-bottomed, opaque 384-well assay plates were purchased from Corning, Cat. No. 3570. CellTiter Glo-3D) kit was purchased from Promega. Cat. No. G9683; cell counter was purchased from CHEMOMETEC, model: NC-200: microplate reader was purchased from PerkinElmer, model: EnVision.
MIA PaCa-2, a human pancreatic cancer cell strain endogenously containing a KRAS^G12C mutation, was cultured in a complete medium containing DMEM+10% FBS+2.5% Horse serum+1% PS. AsPC-1, a human pancreatic cancer cell strain endogenously containing a […] mutation, was cultured in a complete medium containing RPMI-1640+10% FBS+1% PS. NCI-H441 cells, a human lung cancer cell strain endogenously containing a […] mutation, were cultured in a complete medium containing RPMI-1640+10% FBS+1% PS. NCI-H1975, a KRAS wild-type human lung cancer cell strain whose cell proliferation depends on KRAS activity, was cultured in a complete medium containing RPMI-1640+10% FBS+1% PS.
The cells were digested with trypsin (containing EDTA), collected in their respective low-serum complete media containing 2% FBS (for MIA Paca-2 cell culture: DMEM+2% FBS+0.5% Horse serum+1% PS), and counted. After the cell density was adjusted as required, 200 MIA PaCa-2 cells, 800 AsPC-1 cells, 800 NCI-H441 cells, or 400 NCI-H1975 cells per well were seeded into a 384-well cell culture plate, with the volume of the medium in each well being 45 μL. The cell culture plate was incubated in an incubator at 37° C. with 5% CO2, overnight. A series of 3.16-fold gradient dilutions of a 1000× compound stock solution were prepared with DMSO, and then diluted 100-fold with the complete medium containing 2% FBS described above to give 10- compound stock solutions. On the day after cell seeding, 5 μL of the 10- compound stock solution was added to each cell culture well. As a result, the final concentration of the compound in the cell culture well became 1×, and the DMSO content in the well was 0.1%. In addition to the compound-treated wells described above, cell-containing DMSO control wells (with 5 μL of the complete medium containing 1% DMSO added to each well) and cell-free medium control wells (containing 50 μL of the complete medium with 2% FBS) were also set. The culture plate was incubated in an incubator at 37° C. with 5% CO2 for another 5 days, and then 30 μL of CellTiter-Glo working solution was added to each well. The mixture was well mixed, incubated for 30 min, left to stand at room temperature for 30 min, and then transferred to a white-bottomed, opaque 384-well assay plate at 40 μL/well. The chemiluminescence values (RLU) were measured using a microplate reader, and the cell proliferation inhibition rate for each well was calculated: IR (%)=(RLUDMSO—RLUcompound)/(RLUDMSO−RLUblank)×100%, where RLUDMSO is the average RLU signal value from the DMSO control well samples, RLUblank is the average RLU signal value from the medium control well samples, and RLUcompound is the RLU signal value from the compound-treated well samples. […]

[2] = test system: p-ERK in NCI-H441 cells (KRAS G12V mutation); test: Cell p-ERK assay (HTRF) in NCI-H441 cells; type: cell-based, human; conditions: NCI-H441 cells, 3 h compound incubation, HTRF p-ERK T202/Y204, read-out: H441 p-ERK IC50
Method: AsPC-1 cells were purchased from ATCC, Cat. No. CRL-1682: NCI-H441 cells were purchased from ATCC, Cat. No. HTB-174: RPMI-1640 medium was purchased from Gibco, Cat. No. I1875-093: FBS was purchased from Gibco, Cat. No. 10099-141C: penicillin/streptomycin double-antibiotic solution (PS) was purchased from Gibco, Cat. No. 15140-122: trypsin (containing EDTA) was purchased from Gibco, Cat. No. 25200-072; DMSO was purchased from VWRAMRESCO, Cat. No. 0231-500ML; 96-well cell culture plates were purchased from Corning, Cat. No. 3599: white-bottomed, opaque 96-well plates were purchased from Cisbio, Cat. No. 66PL96025; Advance ERK phospho-T202/Y204 kit was purchased from Cisbio, Cat. No. 64AERPEH; cell counter was purchased from CHEMOMETEC, model: NC-200; microplate reader was purchased from PerkinElmer, model: EnVision.
AsPC-1, a human pancreatic cancer cell strain endogenously containing a KRAS^G12D mutation, was cultured in a complete medium containing RPMI-1640+10% FBS+1% PS. NCI-H441, a human non-small cell lung cancer cell strain endogenously containing a KRAS^G12V mutation, was cultured in a complete medium containing RPMI-1640+10% FBS+1% PS.
The cells were digested with trypsin (containing EDTA), collected in their corresponding complete media, and counted. The density of the cell suspensions was adjusted with their corresponding complete media, and 10000 AsPC-1 cells or 20000 NCI-H441 cells per well were seeded into a 96-well cell culture plate, with the volume of the medium in each well being 80 μL.
The cell culture plate was incubated in an incubator at 37° C. with 5% CO2 overnight. A series of 3.16-fold gradient dilutions of a 1000- compound stock solution were prepared with DMSO, and then diluted 200-fold with the complete medium described above to give 5′ compound stock solutions. On the day after cell seeding, 20 μL of the 5× compound stock solution was added to each cell culture well. As a result, the final concentration of the compound in the cell culture well became 1×, and the DMSO content in the well was 0.1%. In addition to the compound-treated wells described above, cell-containing DMSO control wells were also set. A complete medium containing 0.5% DMSO was added at 20 μL/well. After the mixture was well mixed, the culture plate was incubated in the incubator at 37° C. with 5% CO2 for another 3 h. The medium was then removed from the culture wells, and 50 μL of cell lysis buffer (from Advance ERK phospho-T202,Y204 kit) was added to each well. The mixture was well mixed and incubated for 30 min. Then, 16 μL of the mixture was transferred to a white-bottomed, opaque 96-well assay plate, and separately, 16 μL of cell lysis buffer was added to additional wells (serving as blank wells) in the assay plate. After the transfer was completed, 4 μL of p-ERK HTRF antibody mixture (from Advance ERK phospho-T202/Y204 kit) was added to each well of the assay plate, followed by a 4-hour incubation. The HTRF signal values (RLU) were then measured using a microplate reader, and the inhibition rate of the compound against p-ERK levels was calculated as follows: IR (%)=(RLUDMSO−RLUcompound)/(RLUDMSO−RLUblank)×100%, where RLUDMSO is the average HTRF signal value from the DMSO control well samples, RLUblank is the average HTRF signal value from the blank well samples, and RLUcompound is the HTRF signal value from the compound-treated well samples. Using an XLfit software, the IR (%) values were plotted against the logarithm of the compound concentrations, and the dose-response curves were fitted using the four-parameter method to calculate the IC50 values.

[3] = Homo sapiens, NCI-H441, 3D cell proliferation (CellTiter Glo-3D)
[4] = 3D cell proliferation (CellTiter Glo-3D)

Row | SMILES | IC50 [1, 3] [nM] | IC50 [1, 4] [nM] | further results
1 | CCn1c(-c2cc(N3CCN(C)CC3)cnc2[C@H](C)OC)c2c3cc(ccc31)-c1csc(n1)C[C@H](Nc1ccon1)C(=O)N1CCC[C@H](N1)C(=O)OCC(C)(C)C2 (atropisomer, axis not shown) [Compound Z459] | 31.4 | – | –
2 | CCn1c(-c2cc(N3CCN(C)CC3)cnc2[C@H](C)OC)c2c3cc(ccc31)-c1csc(n1)C[C@H](Nc1nnc3n1CCCC3)C(=O)N1CCC[C@H](N1)C(=O)OCC(C)(C)C2 (atropisomer, axis not shown; (Ra)) [Compound Z423] | 74.2 | – | IC50 ([2]; Homo sapiens, NCI-H441, 3 h): 33.3 nM
3 | CCn1c(-c2cc(N3CCN(C)CC3)cnc2[C@H](C)OC)c2c3cc(ccc31)-c1csc(n1)C[C@H](Nc1nnc3n1CC(C)CC3)C(=O)N1CCC[C@H](N1)C(=O)OCC(C)(C)C2 (atropisomer, axis not shown; (Ra)) [Compound Z431] | 101 | – | IC50 ([2]; Homo sapiens, NCI-H441, 3 h): 44.4 nM
4 | CCn1c(-c2cc(N3CCN(C)CC3)cnc2[C@H](C)OC)c2c3cc(ccc31)-c1csc(n1)C[C@H](N(C)C)C(=O)N1CCC[C@H](N1)C(=O)OCC(C)(C)C2 (atropisomer, axis not shown; (Ra)) [Compound Z458] | 168 | – | –
5 | CNCCn1c(-c2cc(C#CCN3CCS(=O)(=O)CC3)cnc2[C@H](C)OC)c2c3cc(ccc31)-c1csc(n1)C[C@H](NC(=O)[C@H]1[C@H](C)[C@@H]1C)C(=O)N1CCC[C@H](N1)C(=O)OCC(C)(C)C2 (atropisomer, axis not shown; (Ra)) [Compound Z954, (1r,2R,3S)—N-((6^3S,4S,Z)-1^2-(5-(3-(1,1-dioxidodimorpholino)prop-1-yn-1-yl)-(Ra)-2-((S)-1-methoxyethyl)pyridin-3-yl)-10,10-dimethyl-1^1-(2-(methylamino)ethyl)-5,7-dioxo-6^1,6^2,6^3,6^4,6^5,6^6-hexahydro-1^1H-8-oxa-2-(4,2)-thiazola-1(5,3)-indola-6(1,3)-pyridazinacycloundecaphane-4-yl)-2,3-dimethylcyclopropane-1-carboxamide] | – | 2.33 | –
6 | CCn1c(-c2cc(C#CCN3CCCOCC3)cnc2[C@H](C)OC)c2c3cc(ccc31)-c1csc(n1)C[C@H](Nc1nnc3cc(I)ccn13)C(=O)N1CCC[C@H](N1)C(=O)OCC(C)(C)C2 (atropisomer, axis not shown; (Ra)) [Compound Z970, (6^3S,4S,Z)-1^2-(Ra)-(5-(3-(1,4-oxazepan-4-yl)prop-1-yn-1-yl)-2-((S)-1-methoxyethyl)pyridin-3-yl)-1^1-ethyl-4-((7-iodo-[1,2,4]triazolo[4,3-a]pyridin-3-yl)amino)-10,10-dimethyl-6^1,6^2,6^3,6^4,6^5,6^6-hexahydro-1^1H-8-oxa-2(4,2)-thiazola-1(5,3)-indola-6(1,3)-pyridazinacycloundecaphane-5,7-dione] | 7.2 | – | –
7 | [2H]C([2H])([2H])O[C@@H](C)c1ncc(N2CCN3CCOC[C@@H]3C2)cc1-c1c2c3cc(ccc3n1CC)-c1csc(n1)C[C@H](NC(=O)[C@H]1[C@H](C)[C@@H]1C)C(=O)N1CCC[C@H](N1)C(=O)OCC(C)(C)C2 (atropisomer, axis not shown; (Sa)) [Compound Z74, (1r,2R,3S)—N-((6^3S,4S,Z)-1^1-ethyl-(Sa)-1^2-(5-((S)-hexahydropyrazino[2,1-c][1,4]oxazin-8(1H)-yl)-2-((S)-1-(methoxy-d3)ethyl)pyridin-3-yl)-10,10-dimethyl-5,7-dioxo-6^1,6^2,6^3,6^4,6^5,6^6-hexahydro-1^1H-8-oxa-2(4,2)-thiazola-1(5,3)-indola-6(1,3)-pyridazinacycloundecaphane-4-yl)-2,3-dimethylcyclopropane-1-carboxamide] | 965 | – | –
8 | CCn1c(-c2cc(OCCN3CC[S+]([O-])CC3)cnc2[C@H](C)OC)c2c3cc(ccc31)-c1csc(n1)C[C@H](NC(=O)[C@H]1[C@H](C)[C@@H]1C)C(=O)N1CCC[C@H](N1)C(=O)OCC(C)(C)C2 (atropisomer, axis not shown; (Sa)) [Compound Z600-1] | – | 96.3 | IC50 [2]: 82.7 nM
9 | CCn1c(-c2cc(C#CCN3CCN(C(=O)CO)CC3)cnc2C(C)OC)c2c3cc(ccc31)-c1csc(n1)CC(Nc1nnc3cc(C)ccn13)C(=O)N1CCCC(N1)C(=O)OCC(C)(C)C2 [Compound Z982, (6^3S,4S,Z)-1^1-ethyl-1^2-(5-(3-(4-(2-hydroxyacetyl)piperazin-1-yl)prop-1-yn-1-yl)-2-((S)-1-methoxyethyl)pyridin-3-yl)-10,10-dimethyl-4-((7-methyl-[1,2,4]triazolo[4,3-a]pyridin-3-yl)amino)-6^1,6^2,6^3,6^4,6^5,6^6-hexahydro-1^1H-8-oxa-2(4,2)-thiazola-1(5,3)-indola-6(1,3)-pyridazinacycloundecaphane-5,7-dione] | – | 2.57 | –
